# Values of other authors as cited in patent publication US20240261298A1, “METHODS OF TREATING DEPRESSION AND ANXIETY” (Woolsey Pharmaceuticals, Inc., priority 2021, published 2024).
# Structures can show the parent of a compound that is named as a salt.
# Tests used:
# [1] = system: adult mice; details: exposure to fasudil
# [2] = 1 hydroxy (M3) metabolite, in vivo
half-life [2],SMILES,anxiety-like behaviors [1]
,"O=S(=O)(c1cccc2cnccc12)N1CCCNCC1 [Fasudil, Hexahydro-1-(5-isoquinolinesulfonyl)-1H-1,4-diazepine monohydrochloride hemihydrate]",induces anxiety-like behaviors
about 8 hours,O=S(=O)(c1cccc2c(O)nccc12)N1CCCNCC1 [M3],
